This test concerns progenitor stem cells in the subgranular zone (SGZ) of the hippocampus. Nature of the test: BrdU immunostaining, long-term survivability of progenitor stem cells in SGZ. It is filed as in vivo, rat. To be noted: for number of surviving cells in the SGZ relative to saline controls / basal levels: 4 weeks after the last BrdU injection. Here is the method: Antidepressant treatment and BrdU dosing. Dosing of adult male Sprague Dawley rats was performed as described above for 14 days (n=10 rats per group). To evaluate the effect of chronic antidepressant treatment on proliferation of progenitor stem cells, 24 hours after the last antidepressant injection, rats were administered BrdU (Sigma, St. Louis, Mo.) (50 mg/kg rig ip injection twice a day) for 4 days prior to euthanesia. To evaluate the effect of chronic antidepressant treatment on survival of progenitor stem cells, a sub-group of rats were allowed to live for 4 weeks after BrdU injection. All rats were perfused through the ascending aorta with 50 ml of 0.9% saline, followed by 400 ml of freshly prepared 4% paraformaldehyde in PBS (pH 7.5). After 30-60 minutes post-perfusion, rat brains were removed and postfixed in 4% paraformaldehyde in PBS overnight, followed by immersion in 30% sucrose/PBS solution for 48-72 hours at 4° C. Brains were rapidly frozen on dry-ice and stored at −80° C. Brain sectioning and staining for BrdU immunoreactivity were performed as previously described by Malberg et al. (2000). Briefly, serial coronal sections of each brain were cut (35 μm thickness) through the entire hippocampus (stereotaxic plates 26-40 according to Paxinos, Watson and Emson, 1980) using a freezing microtome. Every sixth section throughout the hippocampus was processed for BrdU staining. Free-floating sections were maintained in 100 mM PBS (about 100 sections per brain). DNA denaturation of the sections was performed as follows: sections were treated with 50% formamide/50% 2×SSC (0.3 M NaCl/0.03 M sodium citrate) for 2 hours at 65° C., rinsed in PBS (2 times for 5 minutes at room temperature), incubated with 2 N HCl for 30 minutes, followed by 0.1 M boric acid buffer (pH 8.5) for 10 minutes and a final rinse in PBS. For BrdU immunostaining, sections were incubated with 3% H2O2 in PBS for 30 minutes, rinsed in PBS and blocked with 3% normal horse serum in 0.01% TritonX-100 for 30 minutes. Anti-mouse BrdU (1:250 Sigma) was applied to the free-floating sections and incubated overnight at 4° C. The sections were rinsed in PBS, incubated with biotinylated horse, anti-mouse IgG (Vector Lab) for 30 minutes and washed in PBS. ABC reagent complex (Vectastain Elite kit from Vector) was added (as per manufacturer's instructions) for 30 minutes, followed by rinsing in PBS and color development with DAB solution for 4 minutes. Sections were mounted on glass slides and coverslipped. All BrdU labeled cells in the subgranular zone (SGZ) were counted in each section by an experimenter blinded to the study code. All counts were performed at 200× magnification using a light microscope (Zeiss Axiovert 135). The total number of BrdU labeled cells per section were determined and multiplied by 12 to obtain the total number of cells per dentate gyrus. Comparative analyses between treatments were performed using a Tukey HSD post hoc analysis for multiple comparisons.
In vivo studies were performed to measure the effects of antidepressant drug treatment on adult hippocampal neurogenesis by immunological methods. The method used to detect cell proliferation involved 5-bromo-2-deoxyuridine (BrdU) dosing twice a day for 4 days after a 2 week systemic administration of either saline, fluoxetine or venlafaxine. The presence of BrdU within the vicinity of dividing progenitor stem cells in the hippocampal region allowed for its incorporation and the detection of DNA synthesis (the more cell proliferation the more DNA synthesis). The number of BrdU-positive cells was visualized by immunoperoxidase staining. The BrdU immunostaining and quantitative results indicated a significant increase (˜33%) in the proliferation rate of progenitor stem cells in the subgranular zone (SGZ) of the hippocampus for both venlafaxine (P<0.01; n=5) and fluoxetine (P<0.01; n=5) versus saline controls. […]

Each structure is given as a SMILES string.

Regarding `CNCCC(Oc1ccc(C(F)(F)F)cc1)c1ccccc1` (stereo not drawn) [Fluoxetine, fluoxetine], the “number of surviving cells in the SGZ relative to saline controls / basal levels” value by setting is: (FIG. 1B) “significant preservation of proliferative and survivability effects over basal levels”; (FIG. 1B, listed as fluoxetine) “increased the number of surviving cells in the SGZ”.
With `COc1ccc(C(CN(C)C)C2(O)CCCCC2)cc1` (stereo not drawn) [Venlafaxine, venlafaxine], the “sustainability in the rate of proliferation and survivability of progenitor stem cells over basal levels” value (4 weeks after the last antidepressant dose) is 80%. In addition, for the setting “FIG. 1B”, the “number of surviving cells in the SGZ relative to saline controls / basal levels” value was “increased the number of surviving cells in the SGZ”. The “overall number of surviving cells, venlafaxine versus fluoxetine” value (FIG. 1B, P<0.01) is “significant increase in the overall number of surviving cells”. Moreover, for the setting “long-term survivability, venlafaxine versus fluoxetine”, the “more cells compared with fluoxetine” value was about 40%.

The values above are taken from US20080293583A1, “Methods for diagnosing mood disorders” (Wyeth, priority 2003, published 2008).
